Measurements taken from patent publication US10821078B2, “Nanostructure enhanced targeting (NSET) of inflammatory cells” (Northwestern University, priority 2016, dated 2020).
Where two headings read alike, the source gives them in different places.

Columns and labels:
[1] = Organ-level biodistribution of ICG-loaded nanostructures by IVIS NIR fluorescence imaging; type: in vivo, mouse; conditions: 24 h after I.V. injection, C57BL/6 mice
Source text: Nanomaterials have been widely used to deliver therapeutic agents in vivo, and their tissue distribution can either limit or enhance such applications. ICG-loaded MC, PS and FM were therefore assembled at a 33:1 molar ratio of copolymer:dye, and their biodistributions were compared to control injections of free form ICG and PBS in naïve C57BL/6 mice. Liver, spleen, kidneys, lung and heart were harvested and investigated with an IVIS optical imaging system. Following I.V. injection, ICG usually has a half-life of less than 10 minutes primarily due to removal from circulation in the liver.
The ICG-loaded MC, PS and FM were prepared with the optimal molar ratio of PEG-bl-PPS:ICG (33:1) and suspended in PBS. Free ICG (50 μg/mL in PBS solution) served as a control. C57BL/6 mice (n=6) were injected intravenously with 150 μl of free ICG, MC, PS and FM (7.5 μg of loaded ICG in each sample). At different time points (1 h, 24 h, and 48 h post-injection), whole-body NIR fluorescence imaging was performed using an IVIS Lumina (Center for Advanced Molecular Imaging, Northwestern University) with λexc=745 nm, λem=810 nm, exposure time=2 s and f/stop=2. For organ NIR fluorescence imaging, animals were euthanized by carbon dioxide and liver, spleen, kidney, heart, and lung were harvested in petri dishes and imaged by the IVIS Lumina with the same parameters as previous.

[2] = removal from circulation in the liver; cited from earlier work
[3] = test system: macrophages (CD11b+F4/80+); conditions: mouse, in vivo
Experimental: Multi-color flow cytometry was performed to evaluate the uptake of NS of the present invention within cells of the innate and adaptive immune system. Mice were administered DyLight 650-labeled PS, MC and FM by tail vein injection. After different time points (1 h, 24 h, and 48 h), spleen, LN, liver, kidneys, and blood were collected and prepared into single cell suspensions for analysis (gating strategies shown in FIG. 11). For all organs evaluated, NS were predominantly taken up by phagocytic cells in the MPS (FIG. 3, FIG. 12).
C57BL/6 female mice (n=6-8), were injected intravenously with 150 μl of MC, PS, and FM with block copolymer concentration of 15 mg/mL. At different time points (1 h, 24 h, and 48 h post-injection), mice were anesthetized by intraperitoneal (i.p.) injection of a mixture of Ketamine/Xylazine followed by exsanguination. Blood was collected by retro-orbital puncture with BD Microtainer tubes and dipotassium EDTA (BD Biosciences). Serum was separated by centrifugation at 3000 rpm at 4° C. for 25 min. Fluorescence intensity of each nanostructure was normalized by diluting NS solutions in PBS and measuring the fluorescence using a spectrophotometer. The fluorescence of blood serum was measured with an excitation of 655 nm and the emission of 675 nm and correlated with the normalized standard curve for each DyLight 650-labeled NS. To prepare white blood cell suspensions, blood cells were washed twice with 10 ml PBS and treated 3× with ammonium-chloride-potassium (ACK) lysis buffer (Invivogen) to eliminate red blood cells. Liver, spleen, LN (popliteal, inguinal, axillary and brachial), and kidneys were harvested, gently dissociated and incubated in a 12-well plate with each well of 2 ml Collagenase D (2 mg/mL) for 45 min at 37° C. and 5% CO2. Single-cell suspensions were prepared by mechanical dissociation and passing through a 70 μm cell strainer. Anti-mouse CD16/CD32 was used to block FcRs and Zombie Aqua fixable viability dye was used to determine live/dead cells. For flow cytometric analysis, cells were stained using cocktails of fluorophore-conjugated anti-mouse antibodies: panel 1: CD45-FITC, CD3-APC/Cy7, CD4-PE, CD8α-PE/Cy7, NK1.1-PerCP-Cy5.5, CD19-Pacific Blue; panel 2: I-A/I-E-FITC, CD11c-Pacific Blue, CD8α-PE-Cy7, CD11b-PerCP-Cy5.5, CD45RB/B220-PE, Gr-1-APC-Cy7; and panel 3: F4/80-FITC, CD11c-Pacific Blue, CD11b-PerCP-Cy5.5, Ly6C-APC/Cy7, Ly6G-PE/Cy7. After washes, cells were fixed by IC cell fixation buffer (Biosciences). Flow cytometry was performed with FACSDiva on a LSRII flow cytometer (BD Biosciences) and data were analyzed with FlowJo software.

Molecule	ICG fluorescence in organs [1]	half-life following I.V. injection [2]	percentage of macrophages nanostructure positive [3]	decrease in uptake by liver macrophages on switching from MC to PS morphology [3]	percentage of macrophages nanostructure positive ([3]; iv)
CC1(C)C(/C=C/C=C/C=C/C=C2\N(CCCCS(=O)(=O)O)c3ccc4ccccc4c3C2(C)C)=[N+](CCCCS(=O)(=O)[O-])c2ccc3ccccc3c21 [ICG, indocyanine green]	no observable fluorescence	less than 10 minutes			
PEG44-bl-PPS45 [FM]			25%		
PEG17-bl-PPS30			40%	over 50%	30%-40%
PEG45-bl-PPS20 [MC]			over 90%		
